According to patent US20260138959A1, “QUINAZOLINE DERIVATIVE COMPOUND AND USE THEREOF” (VORONOI INC., priority 2021, published 2026):
Read-outs that look alike come from different tables or passages of the source.

Columns and labels:
Ba/F3-c-KIT(D816V) = experiment: Proliferation inhibitory activity on Ba/F3 cell (CellTiter-Glo, 72 hours), c-KIT(D816V); format: cell-based
Procedure: (§1) Ba/F3-TEL-PDGFRα(WT), Ba/F3-TEL-PDGFβ(WT), Ba/F3-c-KIT(D816V) (Kyinno, #KC-0138), c-KIT V560G/D816V, c-KIT D814Y were seeded at 3×10^3/100 μl/well in a clear bottom white 96-well plate. A culture solution containing compounds of 12 concentrations (0.00001-2 mM) serially diluted in 3 folds and the DMSO control group was added at 0.5 μl/well each to a final concentration of 0.00005-10 μM, and then incubated in a CO2 incubator at 37° C. for 72 hours. After 72 hours, the plate treated with the compound was taken out, CellTiter-Glo® Assay (Promega) solution was treated with 100 μl/well, followed by mixing well. After mixing well for about 10 minutes at room temperature, […] was measured using a microplate reader. The data were presented as percentages in proportion to treated cells based on the vehicle, GI50 (nM) values were calculated using GraphPad Prism 8.3.0 (GraphPad software Inc., San Diego).
(§2) The inhibitory activities of Ba/F3 expressing PDGFR-α, PDGFR-β, c-KIT(D816V), c-KIT V560G/D816V, and c-KIT D814Y measured as described above were measured and shown in Table 7 below (A: GI50≤200 nM; B: 200 nM<GI50≤500 nM; C: GI50>500 nM).

c-KIT V560G/D816V = experiment: Proliferation inhibitory activity on Ba/F3 cell (CellTiter-Glo, 72 hours), c-KIT V560G/D816V; format: cell-based; details: read-out: Cell (nM) c-KIT V560G/D816V (GI50 class)
Procedure: as §1, §2

[1] = Mus musculus, BaF3, read-out: Ba/F3 (nM) c-KIT (D816V) (GI50 class)
[2] = Mus musculus, BaF3, c-KIT V560G/D816V cells

| Molecule | GI50 (Ba/F3-c-KIT(D816V); [1]) [nM] | GI50 (c-KIT V560G/D816V; [2]) [nM] | GI50 (Ba/F3-c-KIT(D816V); read-out: Ba/F3 (nM) c-KIT (D816V) (GI50 class)) [nM] | GI50 (c-KIT V560G/D816V; c-KIT V560G/D816V cells) [nM] |
| --- | --- | --- | --- | --- |
| COc1cc2c(-c3ccc(NC(=O)Cc4ccc(C(F)(F)F)cc4)cc3)ncnc2cc1OC[C@H]1CCN(C(=O)OC(C)(C)C)C1 [Example 36, tert-butyl (S)-3-(((6-methoxy-4-(4-(2-(4-(trifluoromethyl)phenyl)acetamido)phenyl)quinazolin-7-yl)oxy)methyl)pyrrolidin-1-carboxylate] | ≤ 200 | > 500 | – | – |
| COc1cc2c(-c3ccc(NC(=O)Cc4ccc(C(F)(F)F)cc4)cc3)ncnc2cc1OC[C@H]1CCNC1 [Example 39, (S)-N-(4-(6-methoxy-7-(pyrrolidin-3-ylmethoxy)quinazolin-4-yl)phenyl)-2-(4-(trifluoromethyl)phenyl)acetamide] | ≤ 200 | 200 to 500 | – | – |
| COc1cc2c(-c3ccc(NC(=O)Cc4ccc(C(F)(F)F)cc4)cc3)ncnc2cc1OCCCN1CCC(C)CC1 [Example 44, N-(4-(6-methoxy-7-(3-(4-methylpiperidin-1-yl)propoxy)quinazolin-4-yl)phenyl)-2-(4-(trifluoromethyl)phenyl)acetamide] | ≤ 200 | ≤ 200 | – | – |
| COc1cc2c(-c3ccc(NC(=O)Cc4cccc(C(F)(F)F)c4)cc3)ncnc2cc1OCCCN1CCN(C)CC1 [Example 55, N-(4-(6-methoxy-7-(3-(4-methylpiperazin-1-yl)propoxy)quinazolin-4-yl)phenyl)-2-(3-(trifluoromethyl)phenyl)acetamide] | ≤ 200 | ≤ 200 | – | – |
| COc1cc2c(-c3ccc(NC(=O)Cc4ccc(C(F)(F)F)cc4)cc3)ncnc2cc1OC[C@@H]1CCCNC1 [Example 73, (R)-N-(4-(6-methoxy-7-(piperidin-3-ylmethoxy)quinazolin-4-yl)phenyl)-2-(4-(trifluoromethyl)phenyl)acetamide] | ≤ 200 | ≤ 200 | – | – |
| CCN1CCC(COc2cc3ncnc(-c4ccc(NC(=O)Cc5ccc(Cl)c(C(F)(F)F)c5)cc4)c3cc2OC)CC1 [Example 78, 2-(4-chloro-3-(trifluoromethyl)phenyl)-N-(4-(7-((1-ethylpiperidin-4-yl)methoxy)-6-methoxyquinazolin-4-yl)phenyl)acetamide] | ≤ 200 | ≤ 200 | – | – |
| COc1cc2ncnc(-c3ccc(NC(=O)Cc4ccc(C(F)(F)F)cc4)cc3)c2cc1OC1CCNC1 (stereo not drawn) [Example 139, N-(4-(7-methoxy-6-(pyrrolidin-3-yloxy)quinazolin-4-yl)phenyl)-2-(4-(trifluoromethyl)phenyl)acetamide] | ≤ 200 | > 500 | – | – |
| COc1cc2ncnc(-c3ccc(NC(=O)Cc4ccc(C(F)(F)F)cc4)cc3)c2cc1O[C@H]1CCCO1 [Example 156, (S)-N-(4-(7-methoxy-6-((tetrahydrofuran-2-yl)oxy)quinazolin-4-yl)phenyl)-2-(4-(trifluoromethyl)phenyl)acetamide] | ≤ 200 | 200 to 500 | – | – |
| COc1cc2ncnc(-c3ccc(NC(=O)Cc4ccc(C(F)(F)F)cc4)cc3)c2cc1OCCCN1C[C@H]2C[C@@H]1CN2C [Example 159, N-(4-(7-methoxy-6-(3-((1R,4R)-5-methyl-2,5-diazabicyclo[2.2.1]heptane-2-yl)propoxy)quinazolin-4-yl)phenyl)-2-(4-(trifluoromethyl)phenyl)acetamide] | ≤ 200 | 200 to 500 | – | – |
| COc1cc2ncnc(-c3ccc(NC(=O)Cc4ccc(C(F)(F)F)cc4)cc3)c2cc1OCCCN1CCCC1 [Example 160, N-(4-(7-methoxy-6-(3-(pyrrolidin-1-yl)propoxy)quinazolin-4-yl)phenyl)-2-(4-(trifluoromethyl)phenyl)acetamide] | ≤ 200 | ≤ 200 | – | – |
| N-(4-(7-methoxy-6-(pyridin-3-ylmethoxy)quinazolin-4-yl)phenyl)-2-(4-trifluoromethyl)phenyl)acetamide [Example 157] | – | – | ≤ 200 | > 500 |

Now from value to molecule:

| GI50 (Ba/F3-c-KIT(D816V); [1]) [nM] | GI50 (c-KIT V560G/D816V; [2]) [nM] | GI50 (Ba/F3-c-KIT(D816V); read-out: Ba/F3 (nM) c-KIT (D816V) (GI50 class)) [nM] | GI50 (c-KIT V560G/D816V; c-KIT V560G/D816V cells) [nM] | Molecule |
| --- | --- | --- | --- | --- |
| ≤ 200 | ≤ 200 | – | – | CCN1CC[C@H](COc2cc3ncnc(-c4ccc(NC(=O)Cc5ccc(C(F)(F)F)cc5)cc4)c3cc2OC)C1 [Example 41, (S)-N-(4-(7-((1-ethylpyrrolidin-3-yl)methoxy)-6-methoxyquinazolin-4-yl)phenyl)-2-(4-(trifluoromethyl)phenyl)acetamide] |
| ≤ 200 | ≤ 200 | – | – | COCCN1CCCC(COc2cc3ncnc(-c4ccc(NC(=O)Cc5ccc(C(F)(F)F)cc5)cc4)c3cc2OC)C1 (stereo not drawn) [Example 42, N-(4-(6-methoxy-7-((1-(2-methoxyethyl)piperidin-3-yl)methoxy)quinazolin-4-yl)phenyl)-2-(4-(trifluoromethyl)phenyl)acetamide] |
| ≤ 200 | 200 to 500 | – | – | COc1cc2c(-c3ccc(NC(=O)Cc4cccc(C(F)(F)F)c4)cc3)ncnc2cc1OCC1CCNCC1 [Example 60, N-(4-(6-methoxy-7-(piperidin-4-ylmethoxy)quinazolin-4-yl)phenyl)-2-(3-(trifluoromethyl)phenyl)acetamide] |
| ≤ 200 | 200 to 500 | – | – | COc1cc2c(-c3ccc(NC(=O)CCc4ccccc4)cc3)ncnc2cc1OCC1CCNCC1 [Example 71, N-(4-(6-methoxy-7-(piperidin-4-ylmethoxy)quinazolin-4-yl)phenyl)-3-phenylpropanamide] |
| ≤ 200 | 200 to 500 | – | – | COc1cc2c(-c3ccc(NC(=O)Cc4ccc(Cl)c(C(F)(F)F)c4)cc3)ncnc2cc1OCC1CCNCC1 [Example 77, 2-(4-chloro-3-(trifluoromethyl)phenyl)-N-(4-(6-methoxy-7-(piperidin-4-ylmethoxy)quinazolin-4-yl)phenyl)acetamide] |
| ≤ 200 | ≤ 200 | – | – | CCN1CCC(COc2cc3ncnc(-c4ccc(NC(=O)Cc5ccc(C(F)(F)F)c(F)c5)cc4)c3cc2OC)CC1 [Example 80, N-(4-(7-((1-ethylpiperidin-4-yl)methoxy)-6-methoxyquinazolin-4-yl)phenyl)-2-(3-fluoro-4-(trifluoromethyl)phenyl)acetamide] |
| ≤ 200 | ≤ 200 | – | – | CCN1CCC(Oc2cc3c(-c4ccc(NC(=O)Cc5ccc(C(F)(F)F)cc5)cc4)ncnc3cc2OC)CC1 [Example 123, N-(4-(6-((1-ethylpiperidin-4-yl)oxy)-7-methoxyquinazolin-4-yl)phenyl)-2-(4-(trifluoromethyl)phenyl)acetamide] |
| ≤ 200 | 200 to 500 | – | – | COc1cc2ncnc(-c3ccc(NC(=O)Cc4ccc(C(F)(F)F)cc4)cc3)c2cc1OCCCN1CCN(C2CC2)CC1 [Example 127, N-(4-(6-(3-(4-cyclopropylpiperazin-1-yl)propoxy)-7-methoxyquinazolin-4-yl)phenyl)-2-(4-(trifluoromethyl)phenyl)acetamide] |
| ≤ 200 | ≤ 200 | – | – | COc1cc2c(-c3ccc(NC(=O)Cc4ccc(C(F)(F)F)cc4)cc3)ncnc2cc1OCCCN1CCN(C(C)=O)CC1 [Example 141, N-(4-(7-(3-(4-acetylpiperazin-1-yl)propoxy)-6-methoxyquinazolin-4-yl)phenyl)-2-(4-(trifluoromethyl)phenyl)acetamide] |
| ≤ 200 | ≤ 200 | – | – | COc1cc2c(-c3ccc(NC(=O)Cc4ccc(C(F)(F)F)cc4)cc3)ncnc2cc1OCCCN1CCN(C)C(=O)C1 [Example 143, N-(4-(6-methoxy-7-(3-(4-methyl-3-oxopiperazin-1-yl)propoxy)quinazolin-4-yl)phenyl)-2-(4-(trifluoromethyl)phenyl)acetamide] |
